From patent US6482610B1, “Method for producing agents for treating tumor diseases and for immunosuppression” (Forschungszentrum Karlsruhe GmbH, priority 1998, dated 2002)
Where two headings read alike, the source gives them in different places.

Experiments:
[1] = test system: cyclin E-associated histone H1 kinase; experiment: Cyclin E-dependent histone H1 kinase activity, immune complex kinase assay; format: cell-based, rat; conditions: 5 L cells, 24-hour treatment, FIG. 2B
Experimental: (§1) After it had been found by introductory experiments that the effect of dioxin on the cell cycle required gene expression which was continuous and induced, experiments were carried out to investigate the Ah receptor-dependent, cell cycle-regulating genes by characterizing biochemical changes in the course of the cell cycle (Lees, E., Curr. Opin. Cell Biol. 7, 773 (1995); Morgan, D. O., Nature 374, 131 (1995). The levels of cyclins D and E, which are involved in the G1-S transition in the cell cycle, as well as their associated cyclin-dependent kinases (cdks 2 and 4), were not reduced by dioxin treatment (see FIG. 2A). […]
(§2) Biochemical properties of G1-phase cyclin/cdk complexes were analysed using 30-60%-confluent, asynchronous cell cultures which, apart from those in section E, had been subjected to a 24-hour treatment with TCDD or 0.1% of the DMSO solvent. The quantities of G1-phase cyclins D1, D2, D3 and E, and also cdks 2 and 4(A) were determined by Western blot in extracts which had been prepared by lysis using a mild detergent (Matsushime, H. et al. Mol. Cell Biol. 14, 2066 (1994)). Cyclin E-dependent histone H1 kinase activity (B) was measured in an immune complex kinase assay (Matsushime, loc. cit.) following precipitation with an anti-cyclin E antibody (lanes 1 and 2) or a corresponding anti-AP-2 antibody as the negative control (lanes 3 and 4). […]

[2] = test system: p27Kip1 associated with cyclin E; experiment: Immunocoprecipitation with anti-cyclin E antibody, Western blot of p27Kip1; format: cell-based, rat; conditions: 5 L cells, immunocoprecipitation analysis, FIG. 2D
Experimental: as §1, §2

Kip1 mRNA = Kip1 mRNA by Northern blot in 5 L cells; format: cell-based, rat
5 L cells [3] = experiment: Cell cycle distribution by flow cytometry in transfected 5 L cells; format: cell-based, rat
Excerpt: Genetic indications of a causal role for Kip1 induction in dioxin-induced cell cycle retardation were obtained by transiently expressing a Kip1 antisense RNA in order to inactivate Kip1. Coexpression of green fluorescent protein (GFP, Heim, A. B. et al., Nature 373, 663 (1997)) enabled flow cytometry to be used to detect efficiently transfected cells (FIG. 3A). […] When Kip1 antisense RNA was expressed together with GFP, the TCDD effect on cell cycle distribution was interrupted in the efficiently transfected subpopulation of cells (FIG. 3B, third row). In the non-transfected subpopulation from the same cell culture, TCDD retarded the progress of the cell cycle in the expected manner (FIG. 3B, last row). In this context, it is to be noted that the electroporation reduced sensitivity to dioxin such that the observed effects on the cell cycle were less pronounced than in non-transfected cells, for example 1.5-2-fold as compared with 3-4-fold in non-electroporated cells (Weiss, loc. cit.).
5 L cells were transiently cotransfected with expression vectors for a Kip1 antisence RNA and GFP (part B, lower panel) or with the empty expression vector and GFP (part B, upper panel). 32 h after the transfection, the cells were treated with 1 nM TCDD or 0.1% DMSO solvent, as the control, and harvested, for the analysis by flow cytometry 18 h later, using trypsin. (A) The GFP-expressing subpopulation of transfected cells (thick line) was identified by means of a high green fluorescence (GFP) as compared with untransfected cells (thin line). (B) Cell cycle profiles were determined by staining with H33258 and analysed individually for efficiently transfected (approx. 5%), green-fluorescing subpopulations (rows 1 and 3) and untransfected subpopulations (rows 2 and 4) in the presence of 1 nM TCDD (right-hand panels) or 0.1% DMSO solvent (left-hand panels).

p27Kip1 [4] = experiment: p27Kip1 protein by Western blot in foetal thymus organ culture thymocytes; format: cell-based, mice; conditions: 2 days of FTOC, 1 nM, compared with solvent cultures
Excerpt: An important target for dioxin toxicity is the thymus, which suffers an AhR-dependent atrophy (Poland, A. et al., Annu. Rev. Pharmacol. Toxicol. 22, 517 (1982); Fernandez-Salguero, P. et al., Science 268, 722 (1995)). Foetal thymus organ culture (FTOC) provides a useful model for studying dioxin activities (Lai, Z. W. et al., Mol. Pharmacol. 52, 30 (1997), and the literature references which are cited therein). After only 2 days of FTOC, a 3-fold induction of Kip1 protein was found in thymocytes which had been prepared from TCDD-treated cultures as compared with cultures which had only been exposed to the solvent (FIG. 4A). This was accompanied by a decrease in the proliferation of the thymocytes, as shown by a reduced incorporation of ^3H-thymidine into the thymocyte DNA (75±7%) and a drop, from 32±3% down to 24±1%, in the number of cells in the S and G2 phases of the cell cycle (a representative example from 3 similar experiments is shown in FIG. 4B). […]
Foetal thymus glands from C57B16 mice were explanted after 14.5 days of pregnancy and cultured for 2 days in the presence of 1 nM TCDD or 0.1% DMSO solvent prior to preparing thymocytes. p27Kip1 protein (A) was determined by Western blot in 10^5 thymocytes. […] The cell cycle distribution of the total lymphocyte population (B) was determined by means of flow cytometry following DNA staining with H33258 bisbenzimide dye.

p27Kip1 [5] = experiment: p27Kip1 protein level by Western blot in 5 L cells and BP8 derivatives; format: cell-based, rat
Experimental: After it had been found by introductory experiments that the effect of dioxin on the cell cycle required gene expression which was continuous and induced, experiments were carried out to investigate the Ah receptor-dependent, cell cycle-regulating genes by characterizing biochemical changes in the course of the cell cycle (Lees, E., Curr. Opin. Cell Biol. 7, 773 (1995); Morgan, D. O., Nature 374, 131 (1995). The levels of cyclins D and E, which are involved in the G1-S transition in the cell cycle, as well as their associated cyclin-dependent kinases (cdks 2 and 4), were not reduced by dioxin treatment (see FIG. 2A). The levels of cyclins D2 and D3 were even raised, presumably because the cells are frozen in a state which is per se associated with a high level of these cyclins. […] The expected accumulation of a slowly migrating form of cdk2, which is presumably not phosphorylated at Thr-160 (Polyak, loc. cit.), was found in the same precipitates (FIG. 2D). […]
as §2, with “4). The levels of p27Kip1 protein (C) were determined by Western blot in whole-cell extracts prepared from TCDD-treated cultures of AhR-expressing 5 L wild-type cells, their AhR-deficient BP8AhR-derivatives and BP8 cells which were expressing AhR ectopically (BP8AhR+) (Weiss, loc. cit.).” for “4).”

5 L cells [6] = conditions: non-electroporated cells (Weiss, loc. cit.); cited from earlier work
thymocytes = experiment: Thymocyte proliferation and cell cycle distribution in foetal thymus organ culture; format: cell-based, mice; conditions: for % in G2/S: 2 days of culture, mean ± S.D., 3 experiments
Excerpt: An important target for dioxin toxicity is the thymus, which suffers an AhR-dependent atrophy (Poland, A. et al., Annu. Rev. Pharmacol. Toxicol. 22, 517 (1982); Fernandez-Salguero, P. et al., Science 268, 722 (1995)). Foetal thymus organ culture (FTOC) provides a useful model for studying dioxin activities (Lai, Z. W. et al., Mol. Pharmacol. 52, 30 (1997), and the literature references which are cited therein). After only 2 days of FTOC, a 3-fold induction of Kip1 protein was found in thymocytes which had been prepared from TCDD-treated cultures as compared with cultures which had only been exposed to the solvent (FIG. 4A). This was accompanied by a decrease in the proliferation of the thymocytes, as shown by a reduced incorporation of ^3H-thymidine into the thymocyte DNA (75±7%) and a drop, from 32±3% down to 24±1%, in the number of cells in the S and G2 phases of the cell cycle (a representative example from 3 similar experiments is shown in FIG. 4B). While the proliferation rate in all the early thymocyte subpopulations was reduced independently of the status of CD4 or CD8 expression (Table 1), the effect was more strongly pronounced in the predominantly immature, double negative subpopulation and in a small CD4low/+/CD8-subpopulation.
Foetal thymus glands from C57B16 mice were explanted after 14.5 days of pregnancy and cultured for 2 days in the presence of 1 nM TCDD or 0.1% DMSO solvent prior to preparing thymocytes. p27Kip1 protein (A) was determined by Western blot in 10^5 thymocytes. Uniform loading of the gel was ensured by probing the blots once again with an Erk1 antibody (one of three representative examples is shown). The cell cycle distribution of the total lymphocyte population (B) was determined by means of flow cytometry following DNA staining with H33258 bisbenzimide dye.
Thymocytes from foetal thymus glands were collected after 2 days of culture in the presence or absence of TCDD and analysed for their cell cycle distribution. The values are mean values±S.D. from 3 independent experiments.

5 L cells [7] = experiment: Cell cycle progress by Rb protein phosphorylation, Western blot, synchronised 5 L cells; format: cell-based, rat; conditions: 1 nM, 2 h before analysis, 8 h after serum stimulation, FIG. 1
Experimental: 5 L cells were frozen in their growth by being fasted in serum-free medium for 24 h and synchronously released from the block in the cell cycle by the addition of serum. The progress in the cell cycle was monitored by Western blot analysis, by determining the accumulation of phosphorylated Rb protein (upper arrow) in relation to hypophosphorylated Rb protein (lower arrow) 8 h after stimulating with the serum. 2 h before the analysis, the cells were treated with 1 nM TCDD, the transcription inhibitor actinomycin D (5 μg/ml) or both these compounds. The culture conditions have been described previously (Weiss, C. et al. Exp. Cell Res. 226, 154 (1996)), and extracts were prepared by lysing the cells in denaturing SDS sample buffer.

[8] = test system: cyclins D1, D2, D3 and E, cdks 2 and 4; experiment: Western blot of G1-phase cyclins and cdks in 5 L cells; format: cell-based, rat; conditions: 24-hour treatment, FIG. 2A
Experimental: as §1, §2

p18-Ink and p21-Cip1 = experiment: Levels of other cdk inhibitors in 5 L cells; format: cell-based, rat
Experimental: After it had been found by introductory experiments that the effect of dioxin on the cell cycle required gene expression which was continuous and induced, experiments were carried out to investigate the Ah receptor-dependent, cell cycle-regulating genes by characterizing biochemical changes in the course of the cell cycle (Lees, E., Curr. Opin. Cell Biol. 7, 773 (1995); Morgan, D. O., Nature 374, 131 (1995). The levels of cyclins D and E, which are involved in the G1-S transition in the cell cycle, as well as their associated cyclin-dependent kinases (cdks 2 and 4), were not reduced by dioxin treatment (see FIG. 2A). The levels of cyclins D2 and D3 were even raised, presumably because the cells are frozen in a state which is per se associated with a high level of these cyclins. […] The expected accumulation of a slowly migrating form of cdk2, which is presumably not phosphorylated at Thr-160 (Polyak, loc. cit.), was found in the same precipitates (FIG. 2D). […] The rise in the level of the p27Kip1 protein was accompanied by a fourfold induction of Kip1 mRNA (FIG. 2E, lanes 1 and 2).

With `Clc1cc2c(cc1Cl)Oc1cc(Cl)c(Cl)cc1O2` [TCDD] the “cyclin E-associated histone H1 kinase activity” value [1] was “substantially reduced”, the “quantities of p27Kip1 associated with cyclin E” value [2] was “increased quantities” and the “induction of Kip1 mRNA” value (Kip1 mRNA; 5 L cells, 4-hour exposure, FIG. 2E) was “fourfold”. For the same compound, the “breakdown of Kip1 mRNA” value (Kip1 mRNA; following interruption of transcription by actinomycin D) was “did not affect”, the “relative number of cells in S/G2” value (5 L cells [3]; GFP with empty expression vector, transfected and non-transfected cells, 1 nM, 18 h) was “reduced” and the “TCDD effect on cell cycle distribution” value (5 L cells [3]; efficiently transfected subpopulation expressing Kip1 antisense RNA with GFP, 1 nM) was “interrupted”. For the same compound, the “observed effects on the cell cycle” value (5 L cells [3]; electroporated cells) was 1.5-2 fold, the “progress of the cell cycle” value (5 L cells [3]; non-transfected subpopulation of the Kip1 antisense culture, 1 nM) was “retarded” and the “induction of Kip1 protein in thymocytes” value (p27Kip1 [4]) was 3 fold. For the same compound, the “level of p27Kip1 by Western blot” value (p27Kip1 [5]; 5 L wild-type cells, exposure from 4 to 72 hours, FIG. 2C) was “raised in every case”, the “upregulation of p27Kip1” value (p27Kip1 [5]; AhR-poor subclone of 5 L cells (BP8-AhR−)) was “not possible to observe dioxin-dependent upregulation” and the “induction of p27Kip1” value (p27Kip1 [5]; BP8 subclone with ectopic expression of the AhR (BP8-AhR+)) was “induction was restored”. For the same compound, the “observed effects on the cell cycle” value (5 L cells [6]) was 3-4 fold, the “incorporation of 3H-thymidine into the thymocyte DNA” value (thymocytes; 2 days of FTOC, 1 nM) was 75±7% and the “% in G2/S” value (thymocytes; CD4+/CD8+ thymocytes) was 35 ± 10%. For the same compound, the “% in G2/S” value (thymocytes; CD4+/CD8− thymocytes) was 24 ± 4%, the “% in G2/S” value (thymocytes; CD4−/CD8+ thymocytes) was 32 ± 6% and the “% in G2/S” value (thymocytes; CD4−/CD8− thymocytes) was 18 ± 2%. The “number of cells in the S and G2 phases of the cell cycle” value (thymocytes; total thymocyte population, 2 days of FTOC, 1 nM) was 24±1%, the “progress of the cell cycle (phosphorylated versus hypophosphorylated Rb protein)” value (5 L cells [7]) was “transcription-dependent retardation” and the “levels of cyclins D2 and D3” value [8] was “even raised”. For the same compound, the “levels of cyclins D and E and associated cyclin-dependent kinases (cdks 2 and 4)” value [8] was “not reduced” and the “p18-Ink and p21-Cip1 levels” value (p18-Ink and p21-Cip1) was “not noticeably altered”.
For `C[C@@H]1C[C@@H]([C@H](O)CC2CC(=O)NC(=O)C2)C(=O)[C@@H](C)C1` [cycloheximide], the “effect on TCDD induction of Kip1 mRNA” value (Kip1 mRNA; 30-minute pretreatment, 20 μg/ml, then 4-hour TCDD) was “had no effect”.
